From patent US20170119020A1, “METHOD OF FEEDING AN ANIMAL” (CARGILL, INCORPORATED, priority 2014, published 2017)
Marks after values point to notes of the source that are not given here.

Key:
[1] = test system: sows (PIC) and their piglets; assay: Litter performance (Example 10); format: in vivo, pig; conditions: for Mortality: piglets until weaning
Method: Testing was performed on sows (primiparous and multiparous) of the same type of crossing (PIC). The trial comprised 52 sows in a system of continuous farrowing. Each group was consist of 13 animals. The trial ran from day 1 of pregnancy to remating in the next cycle.
Each group was fed with complete diets for pregnant sows (0-90 d) and for lactation sows (90 d of gestation-weaning) with different inclusion of vitamin E and tested product (see TABLE 43A) and lactation diets (see TABLE 43B)
The performance following criteria were monitored during the trial: (i) Sows response criteria (actual parity, farrowing rate, culled sows—number and reasons, wean-to-mating interval, farrowing rate in the next cycle); (ii) litter response criteria (number of piglets, total, alive, stillborn, mummies; weight of piglets and litters; survival). The following biochemical (blood) criteria were monitored during the trial for the sows (mating, farrowing and weaning), piglets 21st day: (i) glutathione peroxidase (GPx) activity; (ii) superoxide dismutase (SOD) activity; (iii) total antioxidant status (TAS); (iv) vitamin E content; (v) vitamin A content.

Ross 308 male broilers = assay: Grow out of offspring (Example 6); format: in vivo, chicken; conditions: 160 versus 80 ppm in breeder diet
[2] = test system: egg yolk of Ross 308 breeders; assay: Egg yolk ORAC and vitamin E analysis (Example 4); format: in vivo, chicken
Description: Eggs were shipped to University Gent, Belgium, for ORAC and vitamin E analysis on the yolk. The method used for the determination of polyphenols was the Folin-Ciocalteu Methodology which is described in the European Pharmacopoeia, using a spectrophotometry UV-visible. For the ORAC analysis the method was used as described by Ou et al. “Development and validation of an improved oxygen radical absorbance capacity assay using fluorescein as the fluorescent probe,” Journal of Agricultural and Food Chemistry 49: 4619-4626, (2001) and Huang et al. “High-throughput assay of oxygen radical absorbance capacity (ORAC) using a multichannel liquid handling system coupled with a microplate fluorescence reader in 96-well format,” Journal of Agricultural and Food Chemistry 50: 4437-4444, (2002).

Ross 308 embryos = assay: Embryonic mortality, hatchability and chick quality at hatch (Example 5); format: in vivo, chicken; conditions: for Chick length / Chick weight average / Chick weight dissected chicks / Liver weight / Relative asymmetry / YFBM (yolk free body mass) / Yolk weight: at hatch; for Chick length / Chick weight average / Chick weight dissected chicks / Liver weight / Relative asymmetry / YFBM (yolk free body mass) / Yolk weight / Egg weight EQ / Relative liver weight / Relative yolk weight / Relative chick weight: breeder diet; for Relative liver weight / Relative yolk weight: percentage of chick weight; for Relative chick weight: percentage of egg weight at EO; for Early Embryonic Mortality: E0-E7; for Mid Embryonic Mortality: E8-E18; for Late Embryonic Mortality: E19-E21
Method: For a period of six days, eggs were collected from the broiler breeder flock of Example 4 above. The eggs were stored based on breeder pen and storage day for an additional three days before the brooding period started. All eggs were incubated until hatch. All eggs were distributed over 24 trays and 6 blocks, with each block representing a storage day.
A total of 2160 eggs derived from the 37-38 week broiler breeders (Ross 308) of Example 4 were collected and stored in the egg storage unit of the broiler breeder facility. At the start of the incubation period, the eggs were weighed and allocated into blocks, each block representing a storage day. Each block consisted of 24 experimental units, with each experimental unit indicating a group of 15 eggs. Only intact eggs were included and eggs that were cracked, dirty or that had deformed shells were excluded from the trial.
The eggs were placed in a Nature Form NMC 2340 Incubator with automatic control of temperature and relative humidity. From E0 till E18 the eggs were placed in setter trolleys, which consist of two shelves with a capacity for 13 trays each. Each tray has three flats of 30 eggs each. During this period, the incubator start temperature was set at 37.5° C. and relative humidity at 54%.
After the setter period (E0-E18), eggs were transferred to baskets in the hatchers based on the blocking and tray structure in the setter. The eggs were placed into subdivisions of a hatching crate (per experimental unit of 15 eggs), and following tray order per block (starting with 1AO ending with 24CI). Each hatcher trolley has twelve baskets with a capacity for 180 eggs each. Eggs of tray 1-12 were placed in incubator machine 1, eggs of tray 13-24 were placed in incubator machine 2. During this period, the incubator temperature was set at 36.7° C. and relative humidity at 70%.
Group egg weights were recorded at E0. At E7 and E18, all eggs were candled and empty eggs or eggs containing dead embryos were removed (early dead E0-E7, mid dead E8-E18). At E18 eggs were transferred to the hatching baskets after candling. At hatch (E21) the number of dead chickens, late dead embryos (E19-E21) and pipped eggs were recorded. The number of hatched chickens was recorded per replicate, as well as average chick weight. […] Sex was determined by feather sexing, female chickens were euthanized by CO2 and disposed according to local regulations. Per experimental unit, five male chickens were selected for the grow-out period and allocated to broiler grower pens. Only chickens with an average body weight, completely dry, showing active movement and with a good navel score were selected. After this selection one male chicken per experimental unit was selected for dissection. Sample chickens were individually weighed and killed by cervical dislocation to measure remaining yolk-sac weights, yolk-free body mass (“YFBM”), liver weight, chick length, and shank length of both shanks. The livers were immediately placed on dry ice and after dissection stored at −20° C. for further analysis (“SOD and GSSG”). Relative asymmetry was calculated according to the following formula:
RA=(|L−R|/[(L+R)/2])×100.

[3] = 1st day, Group 2: vitamin E 50/75 mg/kg sow diet
[4] = 1st day, Group 3: vitamin E 100/150 mg/kg sow diet
[5] = Weaning, Group 2: vitamin E 50/75 mg/kg sow diet
[6] = Weaning, Group 3: vitamin E 100/150 mg/kg sow diet

SMILES: Cc1c(C)c2c(c(C)c1O)CCC(C)(CCCC(C)CCCC(C)CCCC(C)C)O2 (racemic) [Vitamin E, DL-α-tocopherol]
- Litter weight [1, 3]: 18.50^a kg
- Number of piglets per litter, Born alive [1, 3]: 12.82
- Number of piglets per litter, Mummies [1, 3]: 0.18
- Number of piglets per litter, Stillborn [1, 3]: 1.36
- Number of piglets per litter, Weak [1, 3]: 0.36
- Piglet weight [1, 3]: 1.44 kg
- Litter weight [1, 4]: 19.07^a kg
- Number of piglets per litter, Born alive [1, 4]: 13.18
- Number of piglets per litter, Mummies [1, 4]: 0.20
- Number of piglets per litter, Stillborn [1, 4]: 1.09
- Number of piglets per litter, Weak [1, 4]: 0.40
- Piglet weight [1, 4]: 1.45 kg
- Litter weight [1, 5]: 83.96^b kg
- Piglet weight [1, 5]: 7.16 kg
- Weaning Number of piglets per litter [1, 5]: 11.73
- Litter weight [1, 6]: 84.33^b kg
- Piglet weight [1, 6]: 7.31 kg
- Weaning Number of piglets per litter [1, 6]: 11.82
- Mortality ([1]; Group 2: vitamin E 50/75 mg/kg sow diet): 8.37%
- Mortality ([1]; Group 3: vitamin E 100/150 mg/kg sow diet): 10.64%
- feed to gain corrected for final bodyweight, worse for high versus low vitamin E treatment (Ross 308 male broilers): 2.6%
- overall feed to gain, worse for high versus low vitamin E treatment (Ross 308 male broilers): 1.4%
- proportionality index for transfer of vitamin E from the diet to the egg ([2]; in vivo): around 50%
- ORAC of egg yolk ([2]; vitamin E equivalence 80 ppm): 33.8 µmol TE/g
- Vitamin E of egg yolk ([2]; vitamin E equivalence 80 ppm): 139.7 µg […]tocoferol/g
- ORAC of egg yolk ([2]; vitamin E equivalence 160 ppm): 33.5 µmol TE/g
- Vitamin E of egg yolk ([2]; vitamin E equivalence 160 ppm): 231.6 µg […]tocoferol/g
- Chick length (Ross 308 embryos; vitamin E equivalence 80 ppm): 18.3 cm
- Chick weight average (Ross 308 embryos; vitamin E equivalence 80 ppm): 43.8 g
- Chick weight dissected chicks (Ross 308 embryos; vitamin E equivalence 80 ppm): 42.8 g
- Liver weight (Ross 308 embryos; vitamin E equivalence 80 ppm): 1.2 g
- Relative asymmetry (Ross 308 embryos; vitamin E equivalence 80 ppm): 2.4%
- YFBM (yolk free body mass) (Ross 308 embryos; vitamin E equivalence 80 ppm): 39.6 g
- Yolk weight (Ross 308 embryos; vitamin E equivalence 80 ppm): 4.2 g
- Chick length (Ross 308 embryos; vitamin E equivalence 160 ppm): 18.4 cm
- Chick weight average (Ross 308 embryos; vitamin E equivalence 160 ppm): 43.7 g
- Chick weight dissected chicks (Ross 308 embryos; vitamin E equivalence 160 ppm): 43.6 g
- Liver weight (Ross 308 embryos; vitamin E equivalence 160 ppm): 1.2 g
- Relative asymmetry (Ross 308 embryos; vitamin E equivalence 160 ppm): 2.3%
- YFBM (yolk free body mass) (Ross 308 embryos; vitamin E equivalence 160 ppm): 40.6 g
- Yolk weight (Ross 308 embryos; vitamin E equivalence 160 ppm): 4.2 g
- Egg weight EQ (Ross 308 embryos; vitamin E equivalence 80 ppm): 62.9 g
- Egg weight EQ (Ross 308 embryos; vitamin E equivalence 160 ppm): 63.0 g
- Relative liver weight (Ross 308 embryos; vitamin E equivalence 80 ppm): 2.8%
- Relative yolk weight (Ross 308 embryos; vitamin E equivalence 80 ppm): 9.7%
- Relative liver weight (Ross 308 embryos; vitamin E equivalence 160 ppm): 2.7%
- Relative yolk weight (Ross 308 embryos; vitamin E equivalence 160 ppm): 9.4%
- Relative chick weight (Ross 308 embryos; vitamin E equivalence 80 ppm): 69.7%
- Relative chick weight (Ross 308 embryos; vitamin E equivalence 160 ppm): 69.4%
- Empty eggs (Ross 308 embryos; vitamin E equivalence 80 ppm): 1.2%
- Hatchability of fertile (Ross 308 embryos; vitamin E equivalence 80 ppm): 91.8%
- Hatchability of total (Ross 308 embryos; vitamin E equivalence 80 ppm): 90.6%
- Total Embryonic Mortality (Ross 308 embryos; vitamin E equivalence 80 ppm): 7.7%
- Early Embryonic Mortality (Ross 308 embryos; vitamin E equivalence 80 ppm): 4.0%
- Mid Embryonic Mortality (Ross 308 embryos; vitamin E equivalence 80 ppm): 1.6%
- Late Embryonic Mortality (Ross 308 embryos; vitamin E equivalence 80 ppm): 2.7%
- Empty eggs (Ross 308 embryos; vitamin E equivalence 160 ppm): 0.0%
- Hatchability of fertile (Ross 308 embryos; vitamin E equivalence 160 ppm): 90.2%
- Hatchability of total (Ross 308 embryos; vitamin E equivalence 160 ppm): 90.2%
- Total Embryonic Mortality (Ross 308 embryos; vitamin E equivalence 160 ppm): 8.6%
- Early Embryonic Mortality (Ross 308 embryos; vitamin E equivalence 160 ppm): 6.6%
- Mid Embryonic Mortality (Ross 308 embryos; vitamin E equivalence 160 ppm): 0.5%
- Late Embryonic Mortality (Ross 308 embryos; vitamin E equivalence 160 ppm): 1.8%
